# Columns and labels:
# Nrf2 = Nrf2 antagonism assay: ARE luciferase reporter in KYSE-70 cells; format: cell-based; settings: Homo sapiens, KYSE-70, KYSE-70 cells, positive Imax corresponds to Nrf2 antagonism, read-out: KYSE70 Cellular ARE Luciferase Imax (%)
# Summary of the method: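 Dose-response curves give IC50 and Imax, with positive Imax read as Nrf2 antagonism, i.e. reduced luciferase signal. Reporter cells are Nrf2-high KYSE-70 (Nrf2 W24C mutant) bearing ARE-controlled luciferase. Antagonists are proposed to act at KEAP1 C151, speeding Nrf2 degradation.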
# KEAP1 C151 = target: T1, KEAP1 C151 (Homo sapiens, UniProt Q14145); experiment: Nrf2 TMT measurement: in vitro TE50 for KEAP1 C151 (IA-DTB competition, targeted TMT mass spectrometry) in MDA-MB-468 cell lysate; format: binding; settings: in vitro target engagement of KEAP1 C151, targeted TMT, read-out: KEAP1_C151 TE50
# T1 construct: treating 500 μg of cell lysate generated from MDA-MB-468 breast cancer cells with DMSO or compound; endogenous in cells; host or cells: MDA-MB-468 breast cancer cell lysate
# T1 sequence (Q14145 whole entry): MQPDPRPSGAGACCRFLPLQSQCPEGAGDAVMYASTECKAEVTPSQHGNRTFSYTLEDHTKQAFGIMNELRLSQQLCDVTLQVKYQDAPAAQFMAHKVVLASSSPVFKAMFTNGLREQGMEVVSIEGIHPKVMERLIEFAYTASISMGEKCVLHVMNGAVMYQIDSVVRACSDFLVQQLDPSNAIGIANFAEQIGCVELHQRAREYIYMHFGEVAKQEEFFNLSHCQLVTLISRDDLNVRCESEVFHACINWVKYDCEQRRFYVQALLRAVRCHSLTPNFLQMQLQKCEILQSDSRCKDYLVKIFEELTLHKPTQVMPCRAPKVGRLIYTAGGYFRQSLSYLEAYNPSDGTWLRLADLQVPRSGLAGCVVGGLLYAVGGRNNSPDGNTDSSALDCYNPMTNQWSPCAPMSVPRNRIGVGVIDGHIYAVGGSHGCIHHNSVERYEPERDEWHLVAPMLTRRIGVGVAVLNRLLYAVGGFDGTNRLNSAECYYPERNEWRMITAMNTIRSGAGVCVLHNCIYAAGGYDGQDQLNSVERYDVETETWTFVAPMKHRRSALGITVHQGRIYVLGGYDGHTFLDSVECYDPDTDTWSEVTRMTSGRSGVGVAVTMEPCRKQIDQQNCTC
# Summary of the method: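 Occupancy of KEAP1 C151 measured as loss of IA-DTB labeling (200 μM, 1 h, room temperature) after 1 h compound pre-treatment of MDA-MB-468 cell lysate.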
IC50 (KEAP1 C151),Compound,Emax (Nrf2)
15 nM,"C=CC(=O)N1[C@H](c2cc(Cl)cc(-c3ccnc(N)n3)c2)COC[C@H]1C(F)F (single isomer, unassigned) [Compound 290]",93%
< 6.4 nM,"C=CC(=O)N1[C@H](c2cc(Cl)cc(-c3ncc(N)cn3)c2)COC[C@H]1C(F)F (single isomer, unassigned) [Compound 291]",93%
1380 nM,"C=C(Cl)C(=O)N1CCOC[C@H]1c1cc(Cl)cc(-c2ncnc(N)n2)c1 (single isomer, unassigned) [Compound 294]",91%
200 nM,"C=C(C(=O)N1CCOC[C@H]1c1cc(Cl)cc(-c2ncnc(N)n2)c1)C(F)(F)F (single isomer, unassigned) [Compound 295]",88%
36 nM,"C=CC(=O)N1CCOC[C@H]1c1cc(Cl)cc(-c2cc3[nH]ccc3cn2)c1 (single isomer, unassigned) [Compound 296]",96%
32 nM,"C=CC(=O)N1CCOC[C@H]1c1cc(Cl)cc(-c2cc(C(N)=O)ccn2)c1 (single isomer, unassigned) [Compound 298]",94%
< 6.4 nM,"C=CC(=O)N1CCOC[C@H]1c1cc(Cl)cc(-c2cnc(N)c(F)n2)c1 [Compound 289, (R)-1-(3-(3-(5-amino-6-fluoropyrazin-2-yl)-5-chlorophenyl)morpholino)prop-2-en-1-one]",95%

# More lines, now with the values behind:
Compound,IC50 (KEAP1 C151),Emax (Nrf2)
"C=CC(=O)N1CCOC[C@H]1c1cc(Cl)cc(-c2c[nH]nn2)c1 (single isomer, unassigned) [Compound 269]",950 nM,72%
"C=CC(=O)N1CCOC[C@H]1c1cc(Cl)cc(-c2cc(N)nc(Cl)n2)c1 (single isomer, unassigned) [Compound 271]",59 nM,93%
"C=CC(=O)N1CCOC[C@H]1c1cc(Cl)cc(-c2ncc(N)c(F)n2)c1 (single isomer, unassigned) [Compound 278]",6.1 nM,87%
"C=CC(=O)N1CCOC[C@H]1c1cc(Cl)cc(-c2cnc(F)c(N)n2)c1 (single isomer, unassigned) [Compound 279]",45 nM,92%
"C=CC(=O)N1CCOC[C@H]1c1cc(Cl)cc(-c2nc(N)cnc2F)c1 (single isomer, unassigned) [Compound 280]",32 nM,90%
"C=CC(=O)N1CCC(F)(F)CC1c1cc(Cl)cc(-c2ccnc(C)n2)c1 (single isomer, unassigned) [Compound 281, 1-(2-(3-chloro-5-(2-methylpyrimidin-4-yl)phenyl)-4,4-difluoropiperidin-1-yl)prop-2-en-1-on]",61 nM,84%
"C=CC(=O)N1CCOC[C@H]1c1cc(Cl)cc(-c2cc(N)nc(F)n2)c1 (single isomer, unassigned) [Compound 283]",18 nM,94%
"C=CC(=O)N1CCC(F)(F)CC1c1cc(Cl)cc(-c2ccnc(N)n2)c1 (single isomer, unassigned) [Compound 284, 1-(2-(3-(2-aminopyrimidin-4-yl)-5-chlorophenyl)-4,4-difluoropiperidin-1-yl)prop-2-en-1-one]",83 nM,94%
"C=CC(=O)N1CCC(F)(F)CC1c1cc(Cl)cc(-c2cc(C)ncn2)c1 (single isomer, unassigned) [Compound 285, 1-(2-(3-chloro-5-(6-methylpyrimidin-4-yl)phenyl)-4,4-difluoropiperidin-1-yl)prop-2-en-1-one]",22 nM,83%
"C=CC(=O)N1CC(C)(C)OC[C@H]1c1cc(Cl)cc(-c2cnc(N)c(N)n2)c1 (single isomer, unassigned) [Compound 286]",32 nM,96%
"C=CC(=O)N1CC(C)(C)OC[C@H]1c1cc(Cl)cc(-c2ncc(N)c(N)n2)c1 (single isomer, unassigned) [Compound 287]",110 nM,96%
"C=CC(=O)N1CCOC[C@H]1c1cc(Cl)cc(-c2c[nH]c(N)n2)c1 [Compound 193, (R)-1-(3-(3-(2-amino-1H-imidazol-4-yl)-5-chlorophenyl)morpholino)prop-2-en-1-one]",97 nM,91%
"C=CC(=O)N1CCOC[C@H]1c1cc(Cl)cc(-n2cnc(N)n2)c1 [Compound 215, (R)-1-(3-(3-(3-amino-1H-1,2,4-triazol-1-yl)-5-chlorophenyl)morpholino)prop-2-en-1-one]",350 nM,65%
"C=CC(=O)N1CCOC[C@H]1c1cc(Cl)cc(-c2ncc(N)c(N)n2)c1 [Compound 253, (R)-1-(3-(3-chloro-5-(4,5-diaminopyrimidin-2-yl)phenyl)morpholino)prop-2-en-1-one]",50 nM,93%
"C=CC(=O)N1CCOC[C@H]1c1cc(Cl)cc(-c2ncc(OC)c(N)n2)c1 [Compound 261, (R)-1-(3-(3-(4-amino-5-methoxypyrimidin-2-yl)-5-chlorophenyl)morpholino)prop-2-en-1-one]",19 nM,95%

# Source: US20260207621A1 (Vividion Therapeutics, Inc., priority 2022, published 2026)
